# Tested on: PBMCs infected with VSV-G pseudotyped HIV virus (VSV-G/pNLG1-P2A-ΔEnv)
# Assay: cells
# Assay type: cell-based
# Conditions: Homo sapiens, PBMC, read-out: TACK EC50
row,SMILES,EC50 [nM]
1,"Cc1nc(C)c(Cc2cc3c(cc2F)[C@@](C#CC2CC2)(C(F)(F)F)NC(=O)N3)c(=O)[nH]1 [Example 17, (S)-4-(cyclopropylethynyl)-7-((2,4-dimethyl-6-oxo-1,6-dihydropyrimidin-5-yl)meth-yl)-6-fluoro-4-(trifluorometh-yl)-3,4-dihydroquinazolin-2(1H)-one]",46
2,"CCN1C(=O)Nc2cc(Cc3c(C)nc(C)[nH]c3=O)ccc2[C@@]1(C#CC1CC1)C(F)(F)F [Example 21, (S)-4-(cyclopropylethynyl)-7-((2,4-dimethyl-6-oxo-1,6-dihydropyrimidin-5-yl)methyl)-3-ethyl-4-(trifluoromethyl)-3,4-dihydroquinazolin-2(1H)-one]",139
3,"CN1C(=O)Nc2cc(Cc3ccnc(N)n3)c(Cl)cc2[C@@]1(C#CC1CC1)C(F)(F)F (single isomer, unassigned) [Example 30]",64.7
4,"NS(=O)(=O)c1ccc(Cc2cc3c(cc2F)[C@@](C#CC2CC2)(C(F)(F)F)NC(=O)N3)cc1 [Example 11, (S)-4-((4-(cyclopropylethynyl)-6-fluoro-2-oxo-4-(trifluoromethyl)-1,2,3,4-tetrahydroquinazolin-7-yl)methyl)benzenesulfonamide]",257
5,"Nc1cncc(Cc2ccc3c(c2)NC(=O)N[C@]3(C#CC2CC2)C(F)(F)F)n1 [Example 54, (S)-7-((6-aminopyrazin-2-yl)-methyl)-4-(cyclopropyl-ethynyl)-4-(trifluoromethyl)-3,4-dihydroquinazolin-2(1H)-one]",67.3
6,"Nc1nc(Cc2cc3c(cc2F)[C@@](C#CC2CC2)(C(F)(F)F)NC(=O)N3)cnc1CO [Example 46, (S)-7-((6-amino-5-(hydroxymethyl)pyrazin-2-yl)methyl)-4-(cyclopropylethynyl)-6-fluoro-4-(trifluoromethyl)-3,4-dihydroquinazolin-2(1H)-one]",108
7,"Cc1cc(Cc2ccc3c(c2)NC(=O)N[C@]3(C#CC2CC2)C(F)(F)F)nc(N)n1 [Example 27, (S)-7-((2-amino-6-methylpyr-imidin-4-yl)methyl)-4-(cyclo-propylethynyl)-4-(trifluoro-methyl)-3,4-dihydroquin-azolin-2(1H)-one]",152
8,"Nc1nccc(Cc2c(F)cc3c(c2F)NC(=O)N[C@]3(C#CC2CC2)C(F)(F)F)n1 [Example 59, (S)-7-((2-aminopyrimidin-4-yl)methyl)-4-(cyclopropylethynyl)-6,8-difluoro-4-(trifluoromethyl)-3,4-dihydroquinazolin-2(1H)-one]",122
9,"Cc1cnc(N)nc1Cc1ccc2c(c1)NC(=O)N[C@]2(C#CC1CC1)C(F)(F)F [Example 34, (S)-7-((2-amino-5-methylpyr-imidin-4-yl)methyl)-4-(cyclo-propylethynyl)-4-(trifluoro-methyl)-3,4-dihydroquinazo-lin-2(1H)-one]",155
10,"Cc1ncc(Cc2ccc3c(c2)NC(=O)N[C@]3(C#CC2CC2)C(F)(F)F)c(=O)[nH]1 [Example 16, (S)-4-(cyclopropylethynl)-7-((2-methyl-6-oxo-1,6-dihydropyrimidin-5-yl)methyl)-4-(trifluoromethyl)-3,4-dihydroquinazolin-2(1H)-one]",153
11,"O=C1Nc2cc(Cc3ccc(OCCO)cn3)c(F)cc2[C@@](C#CC2CC2)(C(F)(F)F)N1 [Example 42, (S)-4-(cyclopropylethynyl)-6-fluoro-7-((5-(2-hydroxyethoxy)pyridin-2-yl)methyl)-4-(trifluoromethyl)-3,4-dihydroquinazolin-2(1H)-one]",161
12,"Cc1nc(C)c(Cc2ccc3c(c2)NC(=O)N(C(C)C)[C@]3(C#CC2CC2)C(F)(F)F)c(=O)[nH]1 [Example 23, (S)-4-(cyclopropylethynyl)-7-((2,4-dimethyl-6-oxo-1,6-dihydropyrimidin-5-l)meth-yl)-3-isopropyl-4-(trifluoro-methyl)-3,4-dihydroquin-azolin-2(1H)-one]",151
13,"Nc1nccc(Cc2ccc3c(c2)NC(=O)N[C@]3(C#CC2CC2)C(F)(F)F)n1 [Example 25, (S)-7-((2-aminopyrimidin-4-yl)methyl)-4-(cyclopropylethynyl)-4-(trifluoromethyl)-3,4-dihydroquinazolin-2(1H)-one]",45.5
14,"N#Cc1cc(Cc2cc3c(cc2F)[C@@](C#CC2CC2)(C(F)(F)F)NC(=O)N3)[n+]([O-])cc1OCCO [Example 43, (S)-4-cyano-2-((4-(cyclopropylethynyl)-6-fluoro-2-oxo-4-(trifluoromethyl)-1,2,3,4-tetrahydroquinazolin-7-yl)methyl)-5-(2-hydroxyethoxy)pyridine 1-oxide]",166
15,"CN1C(=O)Nc2cc(Cc3ccnc(N)n3)ccc2[C@@]1(C#CC1CC1)C(F)(F)F [Example 39, (S)-7-((2-aminopyrimidin-4-yl)methyl)-4-(cyclopropylethynyl)-3-methyl-4-(trifluoromethyl)-3,4-dihydroquinazolin-2(1H)-one]",60.3
16,"Nc1cccc(Cc2cc3c(cc2F)[C@@](C#CC2CC2)(C(F)(F)F)NC(=O)N3)n1 [Example 13, (S)-2-amino-6-((4-(cyclopropyl-ethynyl)-6-fluoro-2-oxo-4-(trifluoromethyl)-1,2,3,4-tetra-hydroquinazolin-7-yl)methyl)-pyridin-1-ium 2,2,2-trifluoro-acetate]",130

# Reference: patent US12492183B2, “Tetrahydroquinazoline derivatives as selective cytotoxic agents” (Merck Sharp & Dohme LLC, priority 2020, dated 2025)
